Assay [1] has as its system CT-DNA. Kind of assay: Ethidium bromide/CT-DNA fluorescence quenching (EB displacement). In kind it is binding. The following applies: EB/CT-DNA 1:1, 5 µM, PBS pH 7.4, room temperature, λex 527 nm, λem 612 nm. The text has this:
Fluorescent spectroscopy allows the determination of the intercalation potential of compounds. Intercalation involves planar aromatic molecules binding between the base pairs of DNA chains, causing them to elongate. Ethidium bromide (EB) is commonly used as a DNA intercalator and produces high levels of fluorescent emissions at 612 nm when intercalating between DNA strands. However, the addition of compounds that can intercalate between DNA strands and suppress the effects of EB will reduce fluorescent emissions. If a complex is able to replace EB, fluorescence reduction will occur, indicating the complex’s ability to bind intercalatively. Figure 3 and Figures S10–S13 show the results of fluorescence titrations in the presence of intercalator EB, where the emission intensity of a constant CT-DNA/EB solution concentration of 5 µM was monitored with increasing complex concentration up to a ratio of 5.
To determine whether the complex could displace EB from the CT-DNA-EB complex, the interactions of the complex with CT-DNA were examined in the presence of EB. The CT-DNA-EB solution was formed by combining EB and CT-DNA solutions with a concentration of 5 μM at a pH of 7.4. The impact of the complex binding to the CT-DNA was measured by analyzing the fluorescence emission spectrum after the addition of the examined complexes solution in increasing concentration, Figure 3.
The binding affinity of the complexes C1–C5 to CT-DNA via intercalation was determined using fluorescence spectroscopy. All measurements were conducted at room temperature in 0.01 M PBS with a pH of 7.4. Fluorescence measurements were performed by adding increasing complex concentrations (0–50 μM) to a CT-DNA and EB solution. Before each measurement, the system was shaken at room temperature. The fluorescence intensity was measured with the wavelength of excitation at 527 nm and the wavelength of emission at 612 nm. The width of the excitation and emission slits (10 nm) and scan rate were maintained at a constant rate. The emission of the solution was recorded in the range of 550 to 750 nm. The Stern–Volmer constants, Ksv, were determined by Equation (2). I0/I = 1 + Ksv[Q](2) [Q] is the concentration of the complex, I0 and I represent emission intensities in the absence and presence of complex, and Ksv is the Stern–Volmer constant obtained from the slope of the plot of I0/I vs. [Q] [25, 26, 27, 28].

The target of assay [2] is T1, Human serum albumin (HSA) (Homo sapiens, UniProt P02768).
T1 construct: reagents in general came from Sigma-Aldrich, Acros Organics or Merck
Nature of the assay: HSA fluorescence quenching. It is filed as binding. As to conditions: for Stern–Volmer constant Ksv, HSA: HSA 2 µM, complex 0–30 µM, PBS pH 7.4, room temperature, λex 295 nm. The text has this: Human serum albumin (HSA) produces a fluorescence signal when excited at 295 nm due to the tryptophan residues. This characteristic makes fluorescence spectroscopy an effective tool for studying complex interactions involving HSA. If the examined complex interacts with HSA, an increasing concentration of the complex will lead to a decrease in fluorescence, as shown in Figure 4 and Figures S14–S17. […] The Stern–Volmer equation (Equation (S2)) was used to determine the Stern–Volmer constant, Ksv, for the HSA interactions.
The binding affinity of the complexes C1–C5 to HSA has been determined through fluorescence quenching experiments. The measurements were conducted in a 0.01 M PBS with a pH of 7.4 at room temperature. The HSA concentration was kept constant at 2 μM while the concentration of complexes C1–C5 was increased from 0 to 30 μM, resulting in a significant decrease in emissions at 352 nm. Before each measurement, the system was shaken at room temperature. The fluorescence intensity was measured with the wavelength of excitation at 295 nm and recorded in the 300 to 500 nm range. The width of the excitation and emission slits (10 nm) and scan rate were maintained at a constant rate. The Stern–Volmer constants, Ksv, were determined by Equation (2).

For assay [3], the system named is mouse colorectal carcinoma (CT26). Kind of assay: MTT cytotoxicity assay, CT26. The following applies: 48 h; for IC50: read-out: IC50 ± SEM, CT26. It is filed as cell-based. How it is done: (§1) The in vitro cytotoxicity of newly synthesized mono- and heteronuclear platinum(II)/and zinc(II) complexes, featuring a 4,4′,4″-tri-tert-butyl-2,2′:6′,2″-terpyridine ligand (designated as C1–C5), was assessed using MTT assay procedures. This evaluation targeted various cell lines: mouse colorectal carcinoma (CT26), human colorectal carcinoma (HCT116 and SW480), and non-cancerous mouse mesenchymal stem cells (mMSC). These cell lines were exposed to synthesized complexes for 48 h, with concentrations ranging from 1.17 to 150 μM.
(§2) In our study, various cell lines were cultured, including mouse colorectal carcinoma (CT26), human colorectal carcinoma (HCT116 and SW480) obtained from ATCC, USA, and mouse mesenchymal stem cells (mMSC, Gibco), New York, NY, USA). These cell lines were consistently maintained in complete Dulbecco’s Modified Eagle Medium (DMEM) supplemented with 10% fetal bovine serum (FBS) (Sigma Aldrich, St. Louis, MO, USA), 100 IU/mL penicillin, and 100 μg/mL streptomycin antibiotics (Invitrogen, Carlsbad, CA, USA). The cultures were incubated at 37 °C in a humidified atmosphere of 5% carbon dioxide (CO2). […] The viability and count of the cells were determined using Trypan blue staining, ensuring the accuracy and reliability of the experimental outcomes.
(§3) The cytotoxic effects of five newly synthesized complexes, alongside cisplatin, were assessed through the MTT assay method, in line with previously established protocols. During the exponential growth phase, cells were collected from culture flasks, counted, and then seeded in 96-well culture plates at a density of 5·10^3 cells per well. Subsequent treatment involved exposing these cells to varying concentrations of the newly synthesized complexes and cisplatin (ranging from 1.17 to 150 μM) for a duration of 48 h, with fresh complete medium serving as the control. The results were quantified relative to the control (untreated cells), providing a comparative measure of cytotoxicity. Additionally, IC50 values, representing the concentration required to inhibit 50% of the cell viability, were calculated using Microsoft Office Excel 2010. Lastly, the data were presented as percentages of viable cells in accordance with the methodology outlined in the referenced study, facilitating a comprehensive understanding of the anticancer potential of these compounds.

Assay [4] deals with human colorectal carcinoma (HCT116). Kind of assay: MTT cytotoxicity assay, HCT116. It is filed as cell-based. The following applies: 48 h; for IC50: read-out: IC50 ± SEM, HCT 116. How it is done:
as §1, §2, §3
Background: Tetrazolium dyes change colour on reduction, which living cells bring about.

Assay [5] deals with human colorectal carcinoma (SW480). Nature of the assay: MTT cytotoxicity assay, SW480. It is filed as cell-based. The following applies: 48 h; for IC50: read-out: IC50 ± SEM, SW480. How it is done:
as §1, §2, §3

For assay [6], the system named is mouse mesenchymal stem cells (mMSC). Kind of assay: MTT cytotoxicity assay, mMSC. In kind it is cell-based. The following applies: 48 h, non-cancerous cells, read-out: IC50 ± SEM, mMSCs. Here is the method:
as §1
In the context of developing low-toxicity drugs, it is imperative to evaluate the antiproliferative activity against normal cells. The in vitro toxicity of the tested complexes toward normal mouse mesenchymal stem cells (mMSC) was examined. […] These findings indicate the possibility of enhanced in vivo tolerance for this complex.
as §2, §3

Assay [7] addresses T1, Human serum albumin (HSA). Also noted: method as in earlier work. The following applies: literature value; ref [24]; cited from earlier work.
Assay [8] addresses B-DNA (PDB ID: 1BNA). Further details: method as in PMID 36535193, doi:10.1002/aoc.7413. As to conditions: previously tested complexes; ref [11],[12]; read-out: Ki (inhibition constant), docking with DNA; cited from earlier work.

Read-outs that look alike come from different tables or passages of the source.

The values that follow come from article PMC10931776, “Modes of Interactions with DNA/HSA Biomolecules and Comparative Cytotoxic Studies of Newly Synthesized Mononuclear Zinc(II) and Heteronuclear Platinum(II)/Zinc(II) Complexes toward Colorectal Cancer Cells” (International Journal of Molecular Sciences, 2024).

T1 sequence (P02768 25-609): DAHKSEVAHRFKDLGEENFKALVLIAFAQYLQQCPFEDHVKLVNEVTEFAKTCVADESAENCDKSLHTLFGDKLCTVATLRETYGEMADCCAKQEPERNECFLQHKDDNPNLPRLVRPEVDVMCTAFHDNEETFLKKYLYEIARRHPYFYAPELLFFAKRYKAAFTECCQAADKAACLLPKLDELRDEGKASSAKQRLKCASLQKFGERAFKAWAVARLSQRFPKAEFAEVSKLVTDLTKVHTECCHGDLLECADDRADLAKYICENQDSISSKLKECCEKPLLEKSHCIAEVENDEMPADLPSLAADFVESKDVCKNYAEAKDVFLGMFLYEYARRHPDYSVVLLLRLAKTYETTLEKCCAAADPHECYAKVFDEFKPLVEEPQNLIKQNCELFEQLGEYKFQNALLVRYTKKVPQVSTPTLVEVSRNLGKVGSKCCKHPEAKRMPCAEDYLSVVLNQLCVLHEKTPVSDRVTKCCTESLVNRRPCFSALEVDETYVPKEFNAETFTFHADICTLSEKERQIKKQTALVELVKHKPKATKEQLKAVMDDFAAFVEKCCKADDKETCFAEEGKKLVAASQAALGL

On to `CC(C)(C)c1ccnc(-c2cc(C(C)(C)C)cc(-c3cc(C(C)(C)C)ccn3)n2)c1.N.N.[Cl-].[Cl-].[O-][Cl+3]([O-])([O-])[O-].[O-][Cl+3]([O-])([O-])[O-].[Pt+2].[Zn+2].c1cnccn1` [C2, [{cis-PtCl(NH3)2(μ-pyrazine)ZnCl(terpy^t^Bu)}](ClO4)2], for which, in assay [1], the “Stern–Volmer constant Ksv, CT-DNA” value is given as 2.9 ± 0.1 10^4 M^–1. The “Stern–Volmer constant Ksv, HSA” value in assay [2] was 5.8 ± 0.1 10^4 M^–1. In addition, in assay [3], the “Selectivity Index (IC50 mMSC/IC50), CT26” value was 0.3 and the 50% inhibitory concentration (IC50) (usually the midpoint of a concentration-inhibition curve) was determined as 35.1 ± 39.6 µM. In assay [4], the “Selectivity Index (IC50 mMSC/IC50), HCT 116” value (from here on “Selectivity Index … HCT 116”) was determined as 0.4 and the IC50 came out at 26.6 ± 25.9 µM. In addition, in assay [5], the “Selectivity Index (IC50 mMSC/IC50), SW480” value (from here on “Selectivity Index … SW480”) is 0.4 and the IC50 was 25.7 ± 2.93 µM. In addition, in assay [6], the half-inhibitory concentration (IC50) was determined as 10.1 ± 0.98 µM.
On to `N.N.[Cl][Pt][Cl]` [cisplatin, reference compound], for which, in assay [3], the “Selectivity Index (IC50 mMSC/IC50), CT26” value worked out at 0.8 and the IC50 was 9.03 ± 3.55 µM. Also, in assay [4], the “Selectivity Index … HCT 116” value came out at 0.5 and the IC50 is 14.7 ± 2.21 µM. In assay [5], the “Selectivity Index … SW480” value amounted to 0.7 and the half-inhibitory concentration (IC50) is 10.1 ± 3.98 µM. Also, the 50% inhibitory concentration (IC50) in assay [6] stood at 7.32 ± 2.51 µM. In addition, the “Stern–Volmer constant Ksv, HSA” value in assay [7] is reported as 0.24 ** 10^4 M^–1.
Take “[{cis-PtCl(NH3)2(μ-4,4′-bipyridyl)ZnCl(terpy)}](ClO4)2 [C3b]”: the inhibition constant Ki – broadly, a measure of affinity in units of concentration, obtained from inhibition or displacement – in assay [8] is 1.01 µM.
In the case of “[{cis-PtCl(NH3)2(μ-4,4′-bipyridyl)ZnCl(terpy-Cl)}](ClO4)2 [C3a]”, the inhibition constant (Ki) in assay [8] is 52.1 µM.
Consider “[{cis-PtCl(NH3)2(μ-4,4′-bipyridyl)ZnCl(terpy^t^Bu)}](CIO4)2 [C4]”, for which the “Stern–Volmer constant Ksv, CT-DNA” value in assay [1] is 5.2 ± 0.1 10^4 M^–1. For the same molecule, in assay [2], the “Stern–Volmer constant Ksv, HSA” value was 22.7 ± 0.1 10^4 M^–1. In addition, in assay [2] (fluorescence quenching of HSA), the “Ksv value for HSA, order of magnitude” value was ~10^5 M^−1. Besides, in assay [3], the “Selectivity Index (IC50 mMSC/IC50), CT26” value was 0.3 and the half-inhibitory concentration (IC50) is 183 ± 72.4 µM. Besides, in assay [4], the “Selectivity Index … HCT 116” value turned out to be 0.7 and the half-maximal inhibitory concentration (IC50) came out at 89.4 ± 6.7 µM. Further, in assay [5], the “Selectivity Index … SW480” value was 0.6 and the IC50 is 94.1 ± 9.89 µM. The IC50 in assay [6] amounted to 60.3 ± 24.7 µM.
With “[{cis-PtCl(NH3)2(μ-pyrazine)ZnCl(terpy)}](ClO4)2 [C1b]”, the Ki in assay [8] was 18.1 µM.
Turning to “[{cis-PtCl(NH3)2(μ-pyrazine)ZnCl(terpy-Cl)}](ClO4)2 [C1a]”, the Ki in assay [8] was 248 µM.
Turning to “[{trans-PtCl(NH3)2(μ-4,4′-bipyridyl)ZnCl(terpy)}](ClO4)2 [C4b]”, the Ki in assay [8] was 1.22 µM.
On to “[{trans-PtCl(NH3)2(μ-4,4′-bipyridyl)ZnCl(terpy-Cl)}](ClO4)2 [C4a]”, for which the Ki in assay [8] was 117 µM.
As to “[{trans-PtCl(NH3)2(μ-4,4′-bipyridyl)ZnCl(terpy^t^Bu)}](CIO4)2 [C5]”, in assay [1], the “Stern–Volmer constant Ksv, CT-DNA” value is reported as 2.9 ± 0.1 10^4 M^–1. Also, the “Stern–Volmer constant Ksv, HSA” value in assay [2] is reported as 9.5 ± 0.1 10^4 M^–1. Besides, in assay [3], the “Selectivity Index (IC50 mMSC/IC50), CT26” value is reported as 0.4 and the IC50 is 108 ± 79.9 µM. In assay [4], the “Selectivity Index … HCT 116” value is on record as 0.3 and the IC50 came to 152 ± 26.8 µM. For the same molecule, in assay [5], the “Selectivity Index … SW480” value is recorded as 0.5 and the half-inhibitory concentration (IC50) was 75.4 ± 21.2 µM. Further, the IC50 in assay [6] is 40.2 ± 3.96 µM.
Turning to “[{trans-PtCl(NH3)2(μ-pyrazine)ZnCl(terpy)}](ClO4)2 [C2b]”, the inhibition constant Ki in assay [8] was 16.3 µM.
On to “[{trans-PtCl(NH3)2(μ-pyrazine)ZnCl(terpy-Cl)}](ClO4)2 [C2a]”, for which, in assay [8], the inhibition constant (Ki) was 231 µM.
Consider “[{trans-PtCl(NH3)2(μ-pyrazine)ZnCl(terpy^t^Bu)}](ClO4)2 [C3]”, for which, in assay [1], the “Stern–Volmer constant Ksv, CT-DNA” value is reported as 2.1 ± 0.1 10^4 M^–1. Further, in assay [2], the “Stern–Volmer constant Ksv, HSA” value is 4.5 ± 0.1 10^4 M^–1. In assay [3], the “Selectivity Index (IC50 mMSC/IC50), CT26” value is given as 0.4. Besides, the IC50 in assay [3] is 210 ± 87 µM; in assay [4], 181 ± 105 µM; in assay [5] it was 68.1 ± 5.21 µM; in assay [6], 76.2 ± 12 µM. The “Selectivity Index … HCT 116” value in assay [4] is 0.4. Also, the “Selectivity Index … SW480” value in assay [5] stood at 1.1.
